Measurements published in patent US20070244007A1, “Cis-Alkoxyspiro-Substituted Tetramic Acid Derivatives” (BAYER CROPSCIENCE AG, priority 2004, published 2007).

Legend:
Type in all cases: in vivo
Summer barley [1] = assay: Container trials with cereals in the greenhouse, post-emergence, Mefenpyr applied 1 day prior to herbicide; conditions: 50 g of a.i./ha, without safener
Procedure: (§1) 1. Herbicidal Post-Emergence Action
Seeds of monocotyledonous and dicotyledonous weed and crop plants are placed in sandy loam in wood fibre pots or in plastic pots, covered with soil and cultivated in a greenhouse, during the vegetation period also outdoors outside of the greenhouse, under good growth conditions. 2-3 weeks after sowing, the test plants are treated at the one- to three-leaf stage. The test compounds, formulated as wettable powders (WP) or emulsifiable concentrates (EC) are, in various dosages with a water application rate of 300 l/ha (converted), with wetting agent (0.2 to 0.3%) added, sprayed onto the plants and the surface of the soil. 3-4 weeks after the treatment of the test plants, the effect of the preparations is rated visually in comparison to untreated controls (herbicidal effect in per cent (%): 100% effect=the plants have died, 0% effect=like control plants). […]

[2] = test system: greenhouse red spider mite (Tetranychus urticae); assay: Tetranychus Test (OP-resistant/spray treatment); conditions: 100 g/ha; bean leaf discs, spray, OP-resistant
Procedure: (§2) To produce a suitable preparation of active compound, 1 part by weight of active compound is mixed with the stated amounts of solvents and emulsifier, and the concentrate is diluted with emulsifier-containing water to the desired concentration.
Discs of bean leaves (Phaseolus vulgaris) which are infested by all stages of the greenhouse red spider mite (Tetranychus urticae) are sprayed with a preparation of active compound of the desired concentration.
After the desired period of time, the activity in % is determined. 100% means that all spider mites have been killed; 0% means that none of the spider mites have been killed.

[3] = test system: green peach aphid (Myzus persicae); assay: Myzus Test (spray treatment); conditions: 100 g/ha, Chinese cabbage discs
Procedure: as §2
Discs of Chinese cabbage (Brassica pekinensis) which are infested by all stages of the green peach aphid (Myzus persicae) are sprayed with a preparation of active compound of the desired concentration.
After the desired period of time, the activity in % is determined. 100% means that all aphids have been killed; 0% means that none of the aphids have been killed.

Setaria [4] = assay: Herbicidal post-emergence action, greenhouse; conditions: 320 g a.i./ha, about 3 weeks
Procedure: (§3) 2. Herbicidal Post-Emergence Action
(§4) Seeds of monocotyledonous and dicotyledonous weed and crop plants are placed into sandy loam in wood fibre pots, covered with soil and cultivated in a greenhouse under good growth conditions. 2-3 weeks after sowing, the test plants are treated at the one-leaf stage. The test compounds, formulated as wettable powders (WP), are, in various dosages with a water application rate of 600 l/ha (converted), with 0.2% of wetting agent added, sprayed onto the green parts of the plants. After the test plants were kept in the greenhouse under optimum growth conditions for about 3 weeks, the effect of the preparations is rated visually in comparison to untreated controls (herbicidal effect in per cent (%): 100% effect=the plants have died, 0% effect=like control plants).

Agropyron [5] = assay: Herbicidal post-emergence action, greenhouse; conditions: 320 g a.i./ha, about 3 weeks
Procedure: as §3, §4

Lolium [6] = assay: Herbicidal post-emergence action, greenhouse; conditions: 320 g a.i./ha, about 3 weeks
Procedure: as §3, §4

Avena [7] = assay: Herbicidal post-emergence action, greenhouse; conditions: 320 g a.i./ha, about 3 weeks
Procedure: as §3, §4

Alopecurus [8] = assay: Herbicidal post-emergence action, greenhouse; conditions: 320 g a.i./ha, about 3 weeks
Procedure: as §3, §4

Sugar-beets [9] = assay: Herbicidal post-emergence action, greenhouse; conditions: 320 g a.i./ha, about 3 weeks
Procedure: as §3, §4

Summer barley [10] = assay: Container trials with cereals outdoors, post-emergence, Mefenpyr in tank mix; conditions: 120 g of a.i./ha, without safener
Procedure: as §1
(§5) Seeds of monocotyledonous and dicotyledonous weed and crop plants are placed in sandy loam in wood fibre pots or in plastic pots, covered with soil and cultivated in a greenhouse, during the vegetation period also outdoors outside of the greenhouse, under good growth conditions. 2-3 weeks after sowing, the test plants are treated at the one- to three-leaf stage. The test compounds, formulated as wettable powders (WP) or emulsifiable concentrates (EC) are, in various dosages with a water application rate of 300 l/ha (converted), with wetting agent (0.2 to 0.3%) added, sprayed onto the plants and the surface of the soil. 3-4 weeks after the treatment of the test plants, the effect of the preparations is rated visually in comparison to untreated controls (herbicidal effect in per cent (%): 100% effect=the plants have died, 0% effect=like control plants).
(§6) If it is additionally to be tested whether safeners can improve the plant compatibility of test substances in the case of crop plants, the following options are used for applying the safener: • seeds of the crop plants are, before sowing, dressed with the safener substance (the amount of safener is stated in per cent, based on the weight of the seed) • before the application of the test substances, the crop plants are sprayed with the safener at a certain application rate per hectar (usually 1 day before the application of the test substances) • the safener is applied together with the test substance as a tank mix (the amount of safener is stated in g/ha or as a ratio, based on the herbicide).
(§7) By comparing the effect of test substances on crop plants with or without safener treatment, it is possible to assess the effect of the safener substance.
(§8) Container Trials with Cereals Outdoors (Outside the Greenhouse/“Bird Cage”) Mefenpyr in Tank Mix

Summer wheat = assay: as above; conditions: 120 g of a.i./ha, without safener
Procedure: as §1, §5, §6, §7, §8

Meloidogyne incognita = assay: Meloidogyne Test (nematicidal action, gall formation on lettuce roots); conditions: 20 ppm active compound; 100% = no galls
Procedure: To produce a suitable preparation of active compound, 1 part by weight of active compound is mixed with the stated amounts of solvent and emulsifier, and the concentrate is diluted with water to the desired concentration.
Vessels are filled with sand, solution of active compound, Meloidogyne incognita egg/larvae suspension and lettuce seeds. The lettuce seeds germinate and the plants develop. On the roots, the galls develop.
After the desired period of time, the nematicidal action is determined in % by the formation of galls. 100% means that no galls have been found; 0% means that the number of galls on the treated plants corresponds to that of the untreated control.

Setaria [11] = assay: Herbicidal pre-emergence action, greenhouse; conditions: 320 g a.i./ha, 3 weeks
Source text: (§9) 1. Herbicidal Pre-Emergence Action
(§10) Seeds of monocotyledonous and dicotyledonous weed and crop plants are placed into sandy loam in wood fibre pots and covered with soil. The test compounds, formulated in the form of wettable powders (WP), are then, in various dosages as aqueous suspension with a water application rate of 600 l/ha (converted), with 0.2% of wetting agent added, applied to the surface of the covering soil.
(§11) After the treatment, the pots are placed in a greenhouse and kept under good growth conditions for the test plants. The visual assessment of the emergence damage on the test plants is carried out after a trial period of 3 weeks by comparison with untreated plants (herbicidal effect in per cent (%): 100% effect=the plants have died, 0% effect=like control plants).

Agropyron [12] = assay: Herbicidal pre-emergence action, greenhouse; conditions: 320 g a.i./ha, 3 weeks
Source text: as §9, §10, §11

Lolium [13] = assay: Herbicidal pre-emergence action, greenhouse; conditions: 320 g a.i./ha, 3 weeks
Source text: as §9, §10, §11

Avena [14] = assay: Herbicidal pre-emergence action, greenhouse; conditions: 320 g a.i./ha, 3 weeks
Source text: as §9, §10, §11

Alopecurus [15] = assay: Herbicidal pre-emergence action, greenhouse; conditions: 320 g a.i./ha, 3 weeks
Source text: as §9, §10, §11

Sugar-beets [16] = assay: Herbicidal pre-emergence action, greenhouse; conditions: 320 g a.i./ha, 3 weeks
Source text: as §9, §10, §11

[17] = test system: larvae of the mustard beetle (Phaedon cochleariae); assay: Phaedon Test (spray treatment); conditions: 100 g/ha, Chinese cabbage discs
Procedure: [[[…]]] To produce a suitable preparation of active compound, 1 part by weight of active compound is mixed with the stated amounts of solvents and emulsifier, and the concentrate is diluted with emulsifier-containing water to the desired concentration. Discs of Chinese cabbage (Brassica pekinensis) are sprayed with a preparation of active compound of the desired concentration and, after they have dried, populated with larvae of the mustard beetle (Phaedon cochleariae).

Compound | Summer barley observed (%) (Summer barley [1]) | Kill rate in % after 5d [2] | Kill rate in % after 5d [3] | herbicidal effect, Setaria (Setaria [4]) | herbicidal effect, Agropyron (Agropyron [5]) | herbicidal effect, Lolium (Lolium [6]) | herbicidal effect, Avena (Avena [7]) | herbicidal effect, Alopecurus (Alopecurus [8]) | herbicidal effect, Sugar-beets (Sugar-beets [9]) | Summer barley observed (%) (Summer barley [10]) | Summer wheat observed (%) (Summer wheat) | Effect in % after 14d (Meloidogyne incognita) | herbicidal effect, Setaria (Setaria [11]) | herbicidal effect, Agropyron (Agropyron [12]) | herbicidal effect, Lolium (Lolium [13]) | herbicidal effect, Avena (Avena [14]) | herbicidal effect, Alopecurus (Alopecurus [15]) | herbicidal effect, Sugar-beets (Sugar-beets [16]) | Kill rate in % after 7d [17]
CCc1cc(Br)cc(CC)c1C1=C(OC(=O)COC)[C@]2(CC[C@H](OC)CC2)NC1=O [Ex. I-b-1] | 50% | – | – | – | – | – | – | – | – | – | – | – | – | – | – | – | – | – | –
CCOC(=O)OC1=C(c2c(C)cc(Br)cc2CC)C(=O)N[C@]12CC[C@@H](OC)CC2 [Ex. I-c-1] | – | 70% | 90% | 100% | 100% | 100% | 100% | 100% | 0% | 35% | 20% | 90% | 100% | 100% | 100% | 97% | 100% | 0% | 83%
CCc1cc(Br)cc(C)c1C1=C(O)[C@]2(CC[C@H](OC)CC2)NC1=O [Ex. I-a-1] | – | – | – | – | – | – | – | – | – | 35% | 30% | – | – | – | – | – | – | – | –
